± gives the expanded uncertainty stated by the source.
How the values were obtained:
[1] = 99.9 kPa, Liquid, Vibrating tube method
[2] = refractive index (Na D-line) (dimensionless); conditions: 99.9 kPa, Liquid, Standard Abbe refractometry

Row | mass density ([1]; 293.15 K) [kg/m3] | mass density ([1]; 294.15 K) [kg/m3] | mass density ([1]; 295.15 K) [kg/m3] | mass density ([1]; 296.15 K) [kg/m3] | mass density ([1]; 297.15 K) [kg/m3] | mass density ([1]; 298.15 K) [kg/m3] | mass density ([1]; 299.62 K) [kg/m3] | refractive index ([2]; 293.15 K) | refractive index ([2]; 298.15 K) | mass density ([1]; 299.75 K) [kg/m3] | SMILES
1 | 729.762 ± 0.33 | 728.496 ± 0.29 | 727.738 ± 0.26 | 726.983 ± 0.26 | 726.227 ± 0.26 | 725.467 ± 0.26 | 724.355 ± 0.26 | 1.41196 ± 0.0005 | 1.40964 ± 0.0005 |  | CCCCCCCCCC [decane]
2 | 717.883 ± 0.33 | 716.601 ± 0.29 | 715.824 ± 0.26 | 715.045 ± 0.26 | 714.268 ± 0.25 | 713.689 ± 0.24 |  | 1.40595 ± 0.00049 | 1.40329 ± 0.00049 |  | CCCCCCCCC [nonane]
3 | 739.96 ± 0.29 |  | 737.96 ± 0.27 |  | 736.48 ± 0.25 | 735.73 ± 0.25 |  | 1.41726 ± 0.00049 | 1.41502 ± 0.00049 | 734.56 ± 0.25 | CCCCCCCCCCC [undecane]

— the NIST ThermoML archive (doi:10.1016/j.fluid.2018.02.015)
